Laboratory results reported in paper PMC6311682, “Design, Synthesis, and Biological Evaluation of 2-Nitroimidazopyrazin-one/-es with Antitubercular and Antiparasitic Activity” (Journal of Medicinal Chemistry, 2018).
In brackets after ≈: the same amount, converted by molar mass. Read-outs that look alike come from different tables or passages of the source. Marks after values point to notes of the source that are not given here.

Assays:
[1] = tested on: C. difficile (630, ATCC BAA-1382); assay: Broth microdilution MIC assay, C. difficile; format: cell-based, Clostridium difficile; settings: 630 ATCC BAA-1382, median MIC; for MIC: Clostridioides difficile, ATCCBAA1382, read-out: antibacterial MIC C. difficile
[2] = Mammalian cytotoxicity assay (resazurin), HepG2; settings: human, HepG2 cells
[3] = tested on: C. albicans (ATCC 90028) and C. neoformans (H99, ATCC 208821); assay: Broth microdilution MIC assay, fungi; format: cell-based; settings: for MIC: Candida albicans, read-out: antifungal MIC
[4] = Kinetic solubility determination by LC-UV; settings: room temperature, 1% DMSO
[5] = Broth microdilution MIC assay, ESKAPE pathogens; format: cell-based; settings: S. aureus, E. coli, K. pneumoniae, A. baumannii, P. aeruginosa; read-out: antibacterial MIC ESKAPE
[6] = tested on: ESKAPE pathogens S. aureus (ATCC 43300), E. coli (ATCC 25922), K. pneumoniae (ATCC 700603), A. baumannii (ATCC 19606), P. aeruginosa (ATCC 27853); assay: Broth microdilution MIC assay, ESKAPE pathogens; format: cell-based
[7] = Mammalian cytotoxicity assay (resazurin), HEK293; settings: human, HEK293 cells
[8] = tested on: L. donovani MHOM/IN/80/DD8 (ATCC50212); assay: L. donovani DD8 intracellular (THP-1) amastigote assay; format: cell-based; settings: Leishmania donovani
[9] = PBS, pH 7.4, Solubility µM (PBS), PBS pH 7.4, 24 h
[10] = water, Solubility µM (H2O), 24 h
[11] = read-out: antiparasitic IC50 L. donovani
[12] = read-out: antiparasitic pIC50 ± SE L. donovani (converted)

SMILES	antibacterial MIC C. difficile [1] [µg/mL]	MIC [1] [µg/mL]	CC50 at 24 h [2] [µM]	antifungal MIC [3] [µg/mL]	MIC [3] [µg/mL]	solubility at 24 h [4, 9] [µM]	solubility at 24 h [4, 10] [µM]	MIC [5] [µg/mL]	antibacterial MIC ESKAPE [6]	CC50 at 24 h [7] [µM]	IC50 [8, 11] [µM]	IC50 [8, 12] [µM]
Cc1cn2cc([N+](=O)[O-])nc2c(=O)[nH]1 [25a, 6-Methyl-2-nitroimidazo[1,2-a]pyrazin-8(7H)-one]	>64	> 64	> 100	>32	> 32	183 ± 29.2 (≈ 35.5 µg/mL)	182 ± 18.2 (≈ 35.3 µg/mL)	> 32	>32 µg/mL	> 100	> 80	> 79.4
Cc1ccc(COc2nc(C)c(C)n3cc([N+](=O)[O-])nc23)cc1 [26e, 5,6-Dimethyl-8-((4-methylbenzyl)oxy)-2-nitroimidazo[1,2-a]pyrazine]	–	–	> 100	>32	> 32	< 5	< 5	> 32	>32 µg/mL	> 100	> 20	> 20
Cc1cn2cc([N+](=O)[O-])nc2c(OCCO)n1 [25e, 2-((6-Methyl-2-nitroimidazo[1,2-a]pyrazin-8-yl)oxy)ethan-1-ol]	>64	> 64	> 100	>32	> 32	193 ± 3.28 (≈ 46 µg/mL)	196 ± 1.45 (≈ 46.7 µg/mL)	> 32	>32 µg/mL	> 100	> 80	> 79.4
Cc1cn2cc([N+](=O)[O-])nc2c(=O)n1CCO [25d, 7-(2-Hydroxyethyl)-6-methyl-2-nitroimidazo[1,2-a]pyrazin-8(7H)-one]	>64	> 64	> 100	>32	> 32	> 200	> 200	> 32	>32 µg/mL	> 100	> 80	> 79.4
Cc1ccc(COc2nc(C)cn3cc([N+](=O)[O-])nc23)cc1 [25i, 6-Methyl-8-((4-methylbenzyl)oxy)-2-nitroimidazo[1,2-a]pyrazine]	–	–	> 100	>32	> 32	< 5	< 5	> 32	>32 µg/mL	> 100	–	–
Cc1cn2cc([N+](=O)[O-])nc2c(=O)n1Cc1ccccc1OC(F)(F)F [25l, 6-Methyl-2-nitro-7-(2-(trifluoromethoxy)benzyl)imidazo[1,2-a]pyrazin-8(7H)-one]	–	–	> 100	>32	> 32	< 5	< 5	> 32	>32 µg/mL	> 100	> 40	> 39.8
CC(=O)OCCOc1nc(C)cn2cc([N+](=O)[O-])nc12 [25c, 2-((6-Methyl-2-nitroimidazo[1,2-a]pyrazin-8-yl)oxy)ethyl]	>64	> 64	> 100	>32	> 32	185 ± 2.69 (≈ 51.8 µg/mL)	169 ± 11 (≈ 47.4 µg/mL)	> 32	>32 µg/mL	> 100	> 80	> 79.4
Cc1cn2cc([N+](=O)[O-])nc2c(=O)n1Cc1cccc(OC(F)(F)F)c1 [25j, 6-Methyl-2-nitro-7-(3-(trifluoromethoxy)benzyl)imidazo[1,2-a]pyrazin-8(7H)-one]	–	–	> 100	>32	> 32	< 5	< 5	> 32	>32 µg/mL	> 100	> 20	> 20
O=[N+]([O-])c1cn2cc(-c3ccccc3)nc(OCCO)c2n1 [24e, 2-((2-Nitro-6-phenylimidazo[1,2-a]pyrazin-8-yl)oxy)ethan-1-ol]	>64	> 64	> 100	>32	> 32	< 5	< 5	16 to 32 (≈ 53.3 to 107 µM)	16-32* μg/mL	> 100	> 80	> 79.4
Cc1c(C)n2cc([N+](=O)[O-])nc2c(=O)n1Cc1ccccc1OC(F)(F)F [26h, 5,6-Dimethyl-2-nitro-7-(2-(trifluoromethoxy)benzyl)imidazo[1,2-a]pyrazin-8(7H)-one]	–	–	> 100	>32	> 32	4.6 ± 0.6 (≈ 1.76 µg/mL)	7.28 ± 0.695 (≈ 2.78 µg/mL)	> 32	>32 µg/mL	> 100	–	–
